Test results: article PMC12689286, “Enhanced therapeutics of cabazitaxel via polycarboxylate conjugation: improved solubility, safety, and antitumor efficacy” (Frontiers in Immunology, 2025)

What was measured:
H460 = test: MTS cytotoxicity, H460; type: cell-based; details: Homo sapiens, NCI-H460
Experimental: (§1) Human cancer cell lines were cultured in basic medium (10% fetal bovine serum (FBS)+1% double antibody solution) (Biological Industries) at 37°C in a 5% CO2 incubator. Effects of CTXs on cell proliferation and viability were measured by an MTS (Promega Corporation) assay. Absorbance values at 490 nm were measured using a microplate reader (Thermo Scientific, Varioskan Flash) ([22]).

MCF-7 = test: MTS cytotoxicity, MCF-7; type: cell-based; details: Homo sapiens, MCF7; MCF-7, MTS
Experimental: as §1

[1] = system: rat red blood cells (RBCs); test: Hemolysis test; type: cell-based, SD rats; details: vs unmodified CTX
Experimental: (§2) The hemolytic potential of CTX formulations was evaluated using rat red blood cells (RBCs). Briefly, whole blood was collected from the abdominal aorta of anesthetized SD rats into ACD anticoagulant (blood:ACD = 1:4, v/v). The blood was diluted with normal saline (4:5, v/v) and centrifuged at 450 g for 10 min. The RBC pellet was washed three times with normal saline until the supernatant was clear. The washed RBCs were then resuspended in normal saline to prepare a 2% (v/v) suspension.
(§3) For the assay, 500 μL of the 2% RBC suspension was mixed with an equal volume of serially diluted drugs or controls in 1.5 mL tubes. The controls included: Negative control (0% hemolysis): normal saline. Positive control (100% hemolysis): distilled water. Solvent control: the vehicle for unmodified CTX (2.5% Tween 80 + 2.5% anhydrous ethanol + 95% normal saline). The mixtures were incubated at 37 °C for 1.5 h and then centrifuged at 450 g for 5 min. Subsequently, 150 μL of the supernatant from each tube was transferred to a 96-well plate, and the absorbance at 545 nm (OD545) was measured using a microplate reader. The percentage of hemolysis was calculated using the following formula: Hemolysis (%) = [(ODsample - ODnegative control)/(ODpositive control - ODnegative control)] × 100.

Hemolysis test = type: cell-based, SD rats; details: SD, rat, rat red blood cells, 2% (v/v) suspension, 37 °C, 1.5 h
Experimental: as §2, §3

Fadu = test: MTS cytotoxicity, Fadu; type: cell-based; details: Homo sapiens
Experimental: as §1

3T3 = test: MTS cytotoxicity, 3T3 (non-tumor); type: cell-based; details: Mus musculus, NIH3T3, 3T3 non-tumor cell line
A549 = test: MTS cytotoxicity, A549; type: cell-based; details: Homo sapiens
Experimental: as §1

DU145 = test: MTS cytotoxicity, DU145; type: cell-based; details: Homo sapiens, DU-145
Experimental: as §1

HT-29 = test: MTS cytotoxicity, HT-29; type: cell-based; details: Homo sapiens; HT-29, MTS
Experimental: as §1

[2] = system: DU145 prostate cancer model; test: DU145 prostate cancer xenograft, tumor volume; type: in vivo, BALB/c nude mice; details: 3 μmol/kg tail vein, three times at 3-day intervals, control 500 ± 45 mm³
Experimental: (§4) All animal experiments were conducted in accordance with protocols approved by the Institutional Animal Care and Use Committee of Peking Union Medical College. Male BALB/c nude mice (6–8 weeks old) and female KM mice (6–8 weeks old) were purchased from Charles River Laboratories (Beijing, China) and maintained under specific pathogen-free conditions.
DU145 Prostate cancer model: DU145 cells (3×10^6 cells/mouse) were subcutaneously inoculated into the right flank of BALB/c nude mic. When tumors reached approximately 100 mm³, mice were randomly divided into four treatment groups (n=6/group): (a) Vehicle control; (b) CTX (3 μmol/kg); (c) CTX-TTHA (3 μmol/kg); (d) CTX-DTPA (3 μmol/kg). Treatments were administered via tail vein injection three times at 3-day intervals. Major organs were collected for histopathological examination after the final administration.

Bel-7402 = test: MTS cytotoxicity, Bel-7402; type: cell-based; details: Homo sapiens; Bel-7402, MTS
Experimental: as §1

[3] = Lipid-aqueous (octanol/water) partition coefficient; type: physicochemical; details: room temperature
Experimental: CTXs were dissolved in octanol, and an equal volume of water was added, followed by shaken at 100 rpm for 24 h at room temperature. The upper octanol phase and lower water phase were separated by centrifugation. The supernatant was analyzed by HPLC (Bruker SolanX 70 FT-MS; Agilent 6540TOF) ([21]).

SK-OV-3 = test: MTS cytotoxicity, SK-OV-3; type: cell-based; details: Homo sapiens; SK-OV-3, MTS
Experimental: as §1

L-02 = test: MTS cytotoxicity, L-02 (non-tumor); type: cell-based; details: Homo sapiens, L02, L-02 non-tumor cell line
Experimental: as §1

LN229 = test: MTS cytotoxicity, LN229; type: cell-based; details: Homo sapiens, LN-229
Experimental: as §1

[4] = Systemic toxicity in H22 tumor-bearing mice (body weight, blood count); type: in vivo, KM mice; details: H22 mice, throughout treatment, across all dose groups (9.6 and 19.1 μmol/kg)
Experimental: H22 hepatoma model: Female KM mice were subcutaneously implanted with H22 cells (2×10^6 cells/mouse) and assigned to six groups: (a) Vehicle control; (b) CTX (9.6 μmol/kg in 5% glucose with 2.5% ethanol/2.5% Tween 80); (c) CTX-TTHA (9.6 μmol/kg in saline); (d) CTX-DTPA (9.6 μmol/kg in saline); (e) CTX-TTHA (19.1 μmol/kg in saline); (f) CTX-DTPA (19.1 μmol/kg in saline).
Treatments were administered every other day for four doses (three doses for CTX group due to weight loss >15%). Peripheral blood samples were collected for complete blood count analysis using an automated hematology analyzer.

H358 = test: MTS cytotoxicity, H358; type: cell-based; details: Homo sapiens, NCI-H358
Experimental: as §1

HCT 116 = test: MTS cytotoxicity, HCT 116; type: cell-based; details: Homo sapiens; HCT 116, MTS
Experimental: as §1

MCF-7 xenografts = test: MCF-7 breast cancer xenograft, tumor volume; type: in vivo, BALB/c nude mice; details: MCF-7 xenograft, 9.6 μmol/kg
Experimental: as §4
MCF-7 Breast Cancer Model: Female BALB/c nude mice bearing MCF-7 xenografts (2×10^6 cells/mouse) were randomized into treatment groups as described above, with an adjusted dose of 9.6 μmol/kg for all CTX formulations.

DU145 cells = test: Cell cycle arrest (PI, flow cytometry); type: cell-based, human; details: 24 h
Experimental: Cells were incubated with drugs for 24 h. Fixed cells were incubated with RNase A and stained with propidium iodide (PI). DNA content was determined in a flow cytometer (BD FACS CaliburTM Flow Cytometer, USA) ([23]).

H520 = test: MTS cytotoxicity, H520; type: cell-based; details: Homo sapiens, NCI-H520
Experimental: as §1

PC-3 = test: MTS cytotoxicity, PC-3; type: cell-based; details: Homo sapiens; PC-3, MTS
Experimental: as §1

[5] = Plasma pharmacokinetics (non-compartmental); details: SD rats
Experimental: (§5) Male and female SD rats (200–220 g) received intravenous injections of CTX or CTX-DTPA (6 μmol/kg). CTX was dissolved in 2.5% Tween 80/2.5% EtOH/saline, while CTX-DTPA used saline alone. Blood samples were collected at 5 min to 24 h post-dose. Tissues (heart, liver, spleen, lung, kidney, thymus) and excreta were collected at 15 min, 2 h, 4 h, and 12 h. Plasma and tissue samples were processed by liquid-liquid extraction with n-butanol and analyzed via LC-MS/MS (Agilent Poroshell 120 EC-C18 column; 0.05% formic acid/acetonitrile gradient). Pharmacokinetic parameters were calculated using DAS 2.0 via non-compartmental analysis.

Tissue distribution = details: CTX metabolite after CTX-DTPA 6 μmol/kg iv, SD rats
Experimental: as §5

[6] = CTX-DTPA 6 μmol/kg iv, plasma, CTX metabolite derived from CTX-DTPA

## COC1C(=O)C2(C)C(OC)CC3OCC3(OC(C)=O)C2C(OC(=O)c2ccccc2)C2(O)CC(OC(=O)C(OC(=O)CN(CCN(CCN(CCN(CC(=O)O)CC(=O)O)CC(=O)O)CC(=O)O)CC(=O)O)C(NC(=O)OC(C)(C)C)c3ccccc3)C(C)=C1C2(C)C (stereo not shown) [CTX-TTHA]
H460
  IC50: 1.9 ± 0.7 nM
MCF-7
  IC50: 5.5 ± 2.3 nM
[1]
  improvement in hemocompatibility over unmodified CTX: 64 fold
Hemolysis test; 300 nmol/mL (maximum tested), read-out: hemolysis rate
  hemolysis at 1.5 h, 300 nmol/mL: 28.3 ± 13.9%
Hemolysis test; concentrations up to 150 nmol/mL
  hemolysis at 1.5 h: < 2%
Fadu
  IC50: 2.3 ± 0.9 nM
3T3
  IC50: 8 ± 3.3 nM
A549
  IC50: 3.3 ± 1.6 nM
DU145
  IC50: 4.1 ± 2.2 nM
HT-29
  IC50: 8.4 ± 3.8 nM
[2]
  final tumor volume: 270 ± 28 mm³
Bel-7402
  IC50: 2.4 ± 0.4 nM
[3]
  logP at 24 h: -1.37 ± 0.38
SK-OV-3
  IC50: 3.2 ± 0.8 nM
L-02
  IC50: 6.8 ± 0.4 nM
LN229
  IC50: 7.6 ± 3.1 nM
[4]
  WBC counts: 3.50-5.60 ×10^9/L
H358
  IC50: 1.6 ± 0.4 nM
HCT 116
  IC50: 2.1 ± 0.9 nM
MCF-7 xenografts
  tumor volume at study endpoint: 190 ± 22 mm³
DU145 cells; DU145, 1 nM
  cells arrested in G2/M: 15.1 ± 0.1%
DU145 cells; DU145, 25 nM
  cells arrested in G2/M: 69.9 ± 12.6%
H520
  IC50: 2.1 ± 0.6 nM
PC-3
  IC50: 7.4 ± 2.8 nM

## CO[C@H]1C(=O)[C@]2(C)[C@@H](OC)C[C@H]3OC[C@@]3(OC(C)=O)[C@H]2[C@H](OC(=O)c2ccccc2)[C@]2(O)C[C@H](OC(=O)[C@H](O)[C@@H](NC(=O)OC(C)(C)C)c3ccccc3)C(C)=C1C2(C)C [CTX/CTX-DTPA]
[5]; 6 μmol/kg iv, CTX metabolite from CTX-DTPA vs CTX group, greater
  Cmax relative to CTX: 2.2 fold
[5]; [6]
  AUC(0-t): **** 5157.71 ± 1650.87 μg/L*h
  CL: 25.2 ± 6.83 mL/min/kg
  Cmax: * 6311.67 ± 1217.79 μg/L
  MRT0-t: 0.72 ± 0.02 H
  Vd: * 6.04 ± 1.63 L/kg
  t1/2: **** 2.77 ± 0.00 H
Tissue distribution; heart, 15 min
  tissue concentration: * 2.38 ± 0.46 μg/kg
Tissue distribution; heart, 2 h
  tissue concentration: *** 2.27 ± 0.70 μg/kg
Tissue distribution; heart, 4 h
  tissue concentration: *** 1.26 ± 0.20 μg/kg
Tissue distribution; heart, 12 h
  tissue concentration: ** 0.41 ± 0.29 μg/kg
Tissue distribution; kidney, 15 min
  tissue concentration: **** 53.38 ± 7.21 μg/kg
Tissue distribution; kidney, 2 h
  tissue concentration: ** 63.87 ± 43.92 μg/kg
Tissue distribution; kidney, 4 h
  tissue concentration: *** 8.74 ± 0.10 μg/kg
Tissue distribution; kidney, 12 h
  tissue concentration: **** 3.14 ± 1.66 μg/kg
Tissue distribution; liver, 15 min
  tissue concentration: *** 17.88 ± 1.12 μg/kg
Tissue distribution; liver, 2 h
  tissue concentration: ** 10.31 ± 7.28 μg/kg
Tissue distribution; liver, 4 h
  tissue concentration: ** 4.62 ± 3.48 μg/kg
Tissue distribution; liver, 12 h
  tissue concentration: * 1.91 ± 1.12 μg/kg
Tissue distribution; lung, 15 min
  tissue concentration: *** 12.95 ± 5.49 μg/kg
Tissue distribution; lung, 2 h
  tissue concentration: **** 9.66 ± 5.84 μg/kg
Tissue distribution; lung, 4 h
  tissue concentration: **** 2.44 ± 0.01 μg/kg
Tissue distribution; lung, 12 h
  tissue concentration: * 1.78 ± 0.82 μg/kg
Tissue distribution; spleen, 15 min
  tissue concentration: ** 5.49 ± 0.53 μg/kg
Tissue distribution; spleen, 2 h
  tissue concentration: **** 8.23 ± 4.20 μg/kg
Tissue distribution; spleen, 4 h
  tissue concentration: ** 2.61 ± 0.42 μg/kg
Tissue distribution; spleen, 12 h
  tissue concentration: ** 1.43 ± 0.96 μg/kg
Tissue distribution; thymus, 15 min
  tissue concentration: ** 1.49 ± 0.02 μg/kg
Tissue distribution; thymus, 2 h
  tissue concentration: * 4.37 ± 5.02 μg/kg
Tissue distribution; thymus, 4 h
  tissue concentration: * 0.79 ± 0.28 μg/kg
Tissue distribution; thymus, 12 h
  tissue concentration: **** 0.80 ± 0.42 μg/kg
